Results from paper PMC6148290, “Endogenous metabolites of vitamin E limit inflammation by targeting 5-lipoxygenase” (Nature Communications, 2018).

Columns and labels:
5-LO = target: T1, 5-LO (Homo sapiens, UniProt P09917); experiment: 5-LO product formation in activated PMNL; format: cell-based; design: Freshly isolated PMNL (1 × 10^7); endogenous in cells; host or cells: human PMNL freshly isolated from leukocyte concentrates
T1 sequence (P09917 1-674): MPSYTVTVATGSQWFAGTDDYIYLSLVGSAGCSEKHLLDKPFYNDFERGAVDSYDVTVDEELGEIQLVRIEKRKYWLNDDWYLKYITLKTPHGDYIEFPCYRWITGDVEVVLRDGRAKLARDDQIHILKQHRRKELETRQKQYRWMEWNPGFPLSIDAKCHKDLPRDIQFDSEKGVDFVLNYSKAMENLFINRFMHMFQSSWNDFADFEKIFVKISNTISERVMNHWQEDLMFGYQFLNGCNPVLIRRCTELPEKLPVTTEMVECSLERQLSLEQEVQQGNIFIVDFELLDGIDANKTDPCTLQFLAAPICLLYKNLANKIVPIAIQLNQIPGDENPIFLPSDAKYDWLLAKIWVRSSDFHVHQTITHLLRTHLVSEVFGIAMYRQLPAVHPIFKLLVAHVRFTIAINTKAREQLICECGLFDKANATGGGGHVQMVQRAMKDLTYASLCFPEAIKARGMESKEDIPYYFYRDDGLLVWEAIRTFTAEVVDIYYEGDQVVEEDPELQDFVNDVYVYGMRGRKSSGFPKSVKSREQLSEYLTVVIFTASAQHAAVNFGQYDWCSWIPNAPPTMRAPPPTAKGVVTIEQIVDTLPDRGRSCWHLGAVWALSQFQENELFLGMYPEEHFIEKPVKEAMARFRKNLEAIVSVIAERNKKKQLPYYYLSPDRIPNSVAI
Text: Human PMNL, monocytes, PBMC, and platelets were freshly isolated from leukocyte concentrates. The protocols for experiments with human blood and blood cells were approved by the ethical commission of the Friedrich-Schiller-University Jena. […] PMNL were recovered from the pellet after hypotonic lysis of erythrocytes. Platelets were obtained from the supernatant and washed with PBS pH 5.9/0.9% NaCl (1:1). […]

COX-2 = target: T2, COX-2 (Homo sapiens, UniProt P35354); experiment: COX-2-dependent PGE2 formation in LPS-activated monocytes; format: cell-based; design: endogenous in cells; host or cells: human monocytes, LPS-stimulated for 24 h; settings: up to 10 µM
T2 sequence (P35354 18-604): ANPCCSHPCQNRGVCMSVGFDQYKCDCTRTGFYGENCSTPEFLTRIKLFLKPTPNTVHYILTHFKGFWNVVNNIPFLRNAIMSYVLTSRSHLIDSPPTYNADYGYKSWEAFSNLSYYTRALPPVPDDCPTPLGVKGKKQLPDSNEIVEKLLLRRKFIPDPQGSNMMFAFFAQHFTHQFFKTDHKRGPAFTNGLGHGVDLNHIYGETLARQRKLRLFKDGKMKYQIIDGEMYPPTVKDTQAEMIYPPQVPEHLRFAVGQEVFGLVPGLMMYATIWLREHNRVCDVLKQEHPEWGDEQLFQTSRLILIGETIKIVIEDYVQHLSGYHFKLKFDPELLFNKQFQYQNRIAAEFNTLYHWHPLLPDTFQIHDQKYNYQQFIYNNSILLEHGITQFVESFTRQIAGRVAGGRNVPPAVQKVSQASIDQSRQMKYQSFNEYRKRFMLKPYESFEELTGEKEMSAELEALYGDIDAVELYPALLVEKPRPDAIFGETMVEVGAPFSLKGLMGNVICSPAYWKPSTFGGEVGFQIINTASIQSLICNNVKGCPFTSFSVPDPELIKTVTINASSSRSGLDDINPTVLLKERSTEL
Procedure: Cells were washed and medium was exchanged. Freshly isolated PMNL (1 × 10^7) and stably transfected HEK-293 (1 × 10^6) cells were suspended in PBS pH 7.4 containing 1 mg/ml glucose and 1 mM CaCl2. […] A23187- and A23187/AA-treated PMNL and A23187/AA-treated HEK-293 (5-LO_wt), HEK-293 (5-LO_3W) and HEK-293 (5-LO_Arg101Asp) cells produced 135 ± 21, 636 ± 112, 300 ± 59, 133 ± 29, 55 ± 9 ng 5-LO products, respectively. PMNL synthesized 29 ± 6 ng 12-HETE and 97 ± 23 ng 15-HETE when challenged with A23187/AA. 5-LO products from monocytes were analyzed by UPLC-MS/MS.
(§1) LPS-activated monocytes were treated with A23187 (2.5 µM) and AA (20 µM) to induce lipid mediator biosynthesis as described for LO product formation. Human blood was pre-incubated with vehicle (DMSO) or α-T-13′-COOH (4a, 100 nM) for 10 min, primed with LPS (1 µg/ml) for 30 min and stimulated with N-formyl-methionyl-leucyl-phenylalanine (fMLP, Sigma-Aldrich; 1 µM) for 15 min at 37 °C.

LTB4 formation = LTB4 formation in LPS/fMLP-stimulated human blood; format: cell-based; settings: 100 nM
Procedure: as §1

intracellular Ca^2+ = experiment: Intracellular Ca2+ in fMLP-stimulated PMNL; format: cell-based, human
Procedure: PMNL (1 × 10^6) were incubated with Fura-2/AM (Thermo Fisher Scientific; 2 nmol) for 45 min at 37 °C, washed, resuspended in PBS pH 7.4 plus 1 mg/ml glucose and transferred to fluorescene 96-well microplates (Greiner). After pre-incubation with compounds for 10 min, 1 mM Ca^2+ was added, and cells were stimulated with fMLP (1 µM) for another 10 min. Intracellular Ca^2+ concentrations were determined using a thermally (37 °C) controlled NOVOstar fluorescence microplate reader [BMG Labtech, Ortenberg, Germany; emission at 510 nm, excitation at 340 nm (Ca^2+-bound Fura-2) and 380 nm (free Fura-2)][17]. The maximal fluorescence signal was recorded after lysis of […] with Triton X-100, and the minimal fluorescence was assessed by adding 20 mM EDTA to chelate Ca^2+. The difference in the signal ratio obtained with Triton X-100 and Triton X-100 plus 20 mM EDTA was set to 100% for each experiment.

PMNL = experiment: Uptake of vitamin E metabolites by PMNL; format: in vitro ADME, human; settings: 150 nM, 20 min; calculated for spherical PMNL, diameter 13 µm
Procedure: Freshly isolated PMNL (1 × 10^7/ml) were suspended in PBS pH 7.4 containing 1 mg/ml glucose. […] LCMs were extracted and analyzed by UPLC-MS/MS using γ-TE-13′-COOH (4g; 12.5 pmol) as internal standard. Intracellular vitamin E metabolite concentrations were calculated assuming spherical cell shape, an equal intracellular distribution, and an average diameter of 13 µm (as determined using a Vi-CELL Series Cell Counter, Beckman Coulter, Krefeld, Germany).

Structure (SMILES): Cc1c(C)c2c(c(C)c1O)CC[C@@](C)(CCCC(C)CCCC(C)CCCC(C)C(=O)O)O2 (stereo partly drawn) [4a, 13-((2R)-6-hydroxy-2,5,7,8-tetramethylchroman-2-yl)-2,6,10-trimethyltridecanoic acid]
- IC50 (5-LO): 80 nM
- inhibition of COX-2-dependent PGE2 formation in activated human monocytes (COX-2): not inhibited
- effect on LTB4 formation in activated human blood (LTB4 formation): inhibited
- effect on intracellular Ca^2+ (intracellular Ca^2+): neither affected
- intracellular concentration reached in PMNL (PMNL): micromolar
